Test results taken from patent US20260274876A1, “3-PYRROLIDINE-INDOLE DIMERS AS SEROTONERGIC AGENTS USEFUL FOR THE TREATMENT OF DISORDERS RELATED THERETO” (MINDSET PHARMA INC., priority 2022, published 2026).

What was measured:
human 5-HT1A receptor = molecular target: T1, human 5-HT1A receptor (Homo sapiens, UniProt P08908); test: Human 5-HT1A functional FLIPR assay (agonist mode); type: cell-based; parameters: expressed in transfected cells; settings: h5-HT1A, curve fitting with activation (%) @ 10 mM with RFU (footnote)
T1 sequence (P08908 1-422): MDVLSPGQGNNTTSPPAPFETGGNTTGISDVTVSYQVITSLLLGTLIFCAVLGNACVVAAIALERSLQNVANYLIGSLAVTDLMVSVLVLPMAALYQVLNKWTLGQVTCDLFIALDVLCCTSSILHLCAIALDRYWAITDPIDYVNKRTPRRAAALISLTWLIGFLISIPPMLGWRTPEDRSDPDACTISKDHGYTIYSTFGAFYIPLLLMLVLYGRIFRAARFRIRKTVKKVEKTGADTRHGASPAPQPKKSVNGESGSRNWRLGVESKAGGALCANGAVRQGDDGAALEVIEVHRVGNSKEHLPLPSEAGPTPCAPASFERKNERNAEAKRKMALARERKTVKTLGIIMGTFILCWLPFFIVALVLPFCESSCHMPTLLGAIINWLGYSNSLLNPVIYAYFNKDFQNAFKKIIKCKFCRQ
Protocol: The potential excitatory effects of compounds targeting on 5-hydroxytryptamine receptor 1A (5-HT1A) under agonist mode was assessed.
HTR1A&Gα15-CHO cells were cultured in DMEM/F12 medium containing 10% dialyzed FBS, 1×penicillin-streptomycin and 600 μg/mL Hygromycin B. The cells were passaged about three times a week, maintained between ~30% to ~90% confluence.
• 1. The cell culture medium (DMEM/F12 medium containing 10% dialyzed FBS, 1×penicillin-streptomycin and 600 μg/mL Hygromycin B), TrypLE™ Express and DPBS was warmed to R.T. in advance. • 2. The cell culture medium was removed from flask. Washed cells with DPBS. • 3. 1 mL TrypLE™ Express was added to the flask, mixed well by gentle shaking and cells were incubated at 37° C. for a few minutes. • 4. The cells were checked for morphological change under microscope, the digestion was stopped by adding 2 mL cell culture medium to the flask when most of cells turned to round. • 5. The cell suspension was transferred into a 15 mL centrifuge tube, and then centrifuged at 1,200 rpm for 5 minutes. • 6. The supernatant was removed. The cell pellet were resuspended with 2 mL cell culture medium. • 7. The cell density were counted using cell counter. Only cells with >85% viability were used for the assay. • 8. Cells were diluted to 4×10^5/mL with cell culture medium. • 9. 30 μL/well cell suspensions were added into a 384-well cell plate (The cell density was 12,000 cells/well). • 10. The cell plate was incubated overnight at 37° C., 5% (v/v) CO2.
• 1. On the day of experiments, culture medium was removed from the cell plate. • 2. 10 μL of assay buffer (20 mM HEPES, in 1×HBSS, pH 7.4) was added to each well of the cell plate. • 3. 2×dye solution was prepared following the manufacture's instruction of the FLIPR® Calcium 6 assay kit: • i. The dye was diluted with assay buffer. • ii. probenecid was added to the final concentration of 5 mM. • iii. Vortexed vigorously for I-2 minutes, adjust pH to 7.4. • 4. 10 μL of 2×dye solution was added to each well of the cell plate. • 5. The cell plate was placed on plate shaker, followed by shaking at 600 rpm for 2 minutes. • 6. The plate was incubated at 37° C. for 2 hours followed by an additional 15-minute incubation at 25° C.
• 1. Serotonin was prepared to the concentration of 10 mM with DMSO, 3-folds serial dilutions were performed with DMSO. • 2. Prepare the test compound to the concentration of 10 mM with DMSO, preform 3-folds serial dilutions with DMSO. • 3. The compounds were added to a 384-well compound source plate. • 4. 90 nL/well of serial diluted compounds were transferred from source plate to a 384-well compound plate by using an Echo. • 5. 30 μL/well of assay buffer was added to the compound plate. • 6. The plate was mixed on-plate shaker for 2 minutes.
• 1. After the cells incubate with dye solution, the cell plate, compound plate containing 3×compounds and FLIPR tips were placed into FLIPR. • 2. 10 μL of 3×compounds were transferred from the compound plate to the cell plate by FLIPR. • 3. The plate was read for 160 sec with 1 sec interval to obtain the data of agonist mode.
• 1. The normalized fluorescence reading (RFU) was calculated as shown below, wherein Fmax and Fmin stand for maximum and minimum of calcium signal during defined time window:
[formula] • 2. EC50 was calculated by fitting RFU against log of compound concentrations with Hill equation using XLfit.

[1] = Intestinal mucosal permeation using Caco-2 cell monolayers; settings: human; for Papp A→B at 2 h, 5 µM / Papp B→A at 2 h, 5 µM / efflux ratio at 2 h, 5 μM: Caco-2, pH 7.4
Protocol: Plate was returned to incubator.
Vortexed for 5 minutes. […] Incubated at 37° C. for 30 minutes.

[2] = Liver microsomes stability, mouse; settings: for Remaining Percentage (%) after 60 min, Mouse, With cofactors / half-life at 2 μM / microsomal CLint at 2 μM / Remaining Percentage (%) after 60 min, Mouse, Without cofactors: mouse liver microsomes; for half-life at 2 μM / microsomal CLint at 2 μM: male, mouse
Protocol: 40 μL of 10 mM NADPH solution was added to each well. The final concentration of NADPH was 1 mM. The negative control samples were prepared by replacing NADPH with 40 μL of ultra-pure H2O. Samples were prepared in duplicate. Negative controls were prepared in singlet.
This study was performed in duplicate.
LC/MS analysis was performed for all samples from this study using a Shimadzu liquid chromatograph separation system equipped with degasser DGU-20A5R; solvent delivery unit LC-30AD; system controller SIL-30AC; column oven CTO-30A; CTC Analytics HTC PAL System. Mass spectrometric analysis was performed using a Triple Quad™ 5500 instrument.
All calculations were carried out using Microsoft Excel.
All calculations were carried out using Microsoft Excel. Peak areas were determined from extracted ion chromatograms.

[3] = Caco-2, pH 7.4, Percentage recovery (%) A→B, Caco-2, A→B
[4] = Caco-2, pH 7.4, Percentage recovery (%) B→A, Caco-2, B→A

With `CN1CCC[C@@H]1Cc1c[nH]c2cccc(O)c12` [Compound 10, (R)-3-((1-methylpyrrolidin-2-yl)methyl)-1H-indol-4-ol] the “RFU@10 μM” value (human 5-HT1A receptor) was 425 RFU, the Papp A→B at 2 h, 5 µM [1] was 23.2 ×10⁻⁶ cm/s and the Papp B→A at 2 h, 5 µM [1] was 18.8 ×10⁻⁶ cm/s. For the same compound, the efflux ratio at 2 h, 5 μM [1] was 0.81, the recovery at 2 h, 5 μM [1, 3] was 82.7% and the recovery at 2 h, 5 μM [1, 4] was 92%.
In the case of `[2H]C([2H])(c1c[nH]c2cccc(O)c12)[C@H]1CCCN1C([2H])([2H])[2H]` [Compound 13, (R)-3-((1-(methyl-d3)pyrrolidin-2-yl)methyl-d2)-1H-indol-4-ol], the “RFU@10 μM” value (human 5-HT1A receptor) was 307 RFU.
In the case of `CN(C)CCc1c[nH]c2cccc(O)c12` [Psilocin, 4-hydroxy-N,N-dimethyltryptamine, reference compound], the “RFU@10 μM” value (human 5-HT1A receptor) was 140 RFU, the Papp A→B at 2 h, 5 µM [1] was 24.6 ×10⁻⁶ cm/s and the Papp B→A at 2 h, 5 µM [1] was 18.7 ×10⁻⁶ cm/s. The recovery at 2 h, 5 μM [1, 3] was 100%, the recovery at 2 h, 5 μM [1, 4] was 102% and the “t1/2 Mouse” value ([2]; mouse liver microsomes with NADPH, 2 μM) was 141.71 min. For the same compound, the “Remaining Percentage (%) after 60 min, Mouse, With cofactors” value (“Remaining Percentage (%) … With cofactors” below) [2] was 96.89%.
In the case of `[2H]C([2H])(c1c[nH]c2cccc(OC(=O)CCCC(=O)Oc3cccc4[nH]cc(C([2H])([2H])[C@H]5CCCN5C([2H])([2H])[2H])c34)c12)[C@H]1CCCN1C([2H])([2H])[2H]` [Compound I-22, bis(3-(((R)-1-(methyl-d3)pyrrolidin-2-yl)methyl-d2)-1H-indol-4-yl) glutarate], the “RFU@10 μM” value (human 5-HT1A receptor) was 130 RFU, the Papp A→B at 2 h, 5 µM [1] was under 0.25 ×10⁻⁶ cm/s and the Papp B→A at 2 h, 5 µM [1] was 1.01 ×10⁻⁶ cm/s. The efflux ratio at 2 h, 5 μM [1] was over 4.08, the recovery at 2 h, 5 μM [1, 3] was under 126% and the recovery at 2 h, 5 μM [1, 4] was 101%. For the same compound, the half-life at 2 μM [2] was under 4.51 min, the microsomal CLint at 2 μM [2] was over 307 µL/min/mg and the “Remaining Percentage (%) … With cofactors” value [2] was 0%. For the same compound, the “Remaining Percentage (%) after 60 min, Mouse, Without cofactors” value [2] was 0%.
For `CN1CCC[C@@H]1Cc1c[nH]c2cccc(OC(=O)CCCC(=O)Oc3cccc4[nH]cc(C[C@H]5CCCN5C)c34)c12` [Compound I-13, Bis(3-(((R)-1-methylpyrrolidin-2-yl)methyl)-1H-indol-4-yl) glutarate], the “RFU@10 μM” value (human 5-HT1A receptor) was 87 RFU, the Papp A→B at 2 h, 5 µM [1] was 0.63 ×10⁻⁶ cm/s and the Papp B→A at 2 h, 5 µM [1] was 4.1 ×10⁻⁶ cm/s. It also gave an efflux ratio at 2 h, 5 μM [1] of 6.5, a recovery at 2 h, 5 μM [1, 3] of 94.7% and a recovery at 2 h, 5 μM [1, 4] of 110%. The half-life at 2 μM [2] was under 4.51 min, the microsomal CLint at 2 μM [2] was over 307 µL/min/mg and the “Remaining Percentage (%) … With cofactors” value [2] was 0%. The “Remaining Percentage (%) after 60 min, Mouse, Without cofactors” value [2] was 0%.
